# Reference: BindingDB's records for doi:10.1080/14756360701810207 (Gyeongsang National University, 2008)
# Values joined by “and” are separate entries in the source; they are usually repeats but may differ in a detail not shown here. Identical values can stand only once.
# Biological target: T1, Polyphenol oxidase 2 (Agaricus bisporus, UniProt O42713)
# T1 sequence (O42713 whole entry): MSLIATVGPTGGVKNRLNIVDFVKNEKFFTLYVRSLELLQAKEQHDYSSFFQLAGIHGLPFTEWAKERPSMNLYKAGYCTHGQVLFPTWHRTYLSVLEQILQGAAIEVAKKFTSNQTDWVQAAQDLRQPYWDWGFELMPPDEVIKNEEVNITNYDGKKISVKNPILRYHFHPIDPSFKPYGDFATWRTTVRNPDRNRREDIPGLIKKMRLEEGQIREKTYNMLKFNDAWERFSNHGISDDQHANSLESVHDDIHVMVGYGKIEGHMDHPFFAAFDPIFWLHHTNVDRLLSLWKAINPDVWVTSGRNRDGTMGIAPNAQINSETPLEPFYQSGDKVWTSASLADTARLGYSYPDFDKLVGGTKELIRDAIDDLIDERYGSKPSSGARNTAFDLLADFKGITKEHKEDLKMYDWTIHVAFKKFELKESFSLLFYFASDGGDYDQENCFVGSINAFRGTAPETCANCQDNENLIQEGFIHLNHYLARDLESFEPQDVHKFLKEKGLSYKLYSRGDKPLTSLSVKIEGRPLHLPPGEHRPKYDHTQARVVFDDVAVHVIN
# Assay: Tyrosinase Assay
# Settings: 30 °C
# Text: Mushroom tyrosinase using either L-DOPA or L-tyrosine as substrate. In spectrophotometric experiments, enzyme activity was monitored by dopachrome formation at 475 nm with a UV-Vis spectrophotometer (Spectro UV-Vis Double beam; UVD-3500, Labomed, Inc.) at 30 C.
SMILES,Ki [µM],IC50
"O=c1cc(-c2ccc(O)cc2O)oc2cc(O)cc(O)c12 [Norartocarpetin, 5]",0.61,–
"C/C(=C\Cc1c(-c2ccc(O)cc2O)oc2c3c(cc(O)c2c1=O)OC(C)(CO)C=C3)CO (stereo not drawn) [Mormin, 1]",49.2,87.8 µM and 215 µM
CC(C)=CCc1c(-c2ccc(O)cc2O)oc2c(CC=C(C)C)c(O)cc(O)c2c1=O,80.5,135 µM and > 300 µM
"CC(C)=CCc1c(-c2ccc(O)cc2O)oc2c3c(cc(O)c2c1=O)OC(C)(C)C=C3 [Morusin, 3]",–,> 300 µM
"CC(C)=CC1Oc2cc(O)ccc2-c2oc3c4c(cc(O)c3c(=O)c21)OC(C)(C)C=C4 (stereo not drawn) [Cycolmorusin, 2]",46.4,91.6 µM and 161 µM
